Test results: US20210315992A1, “ADJUVANT EFFECT OF THE TLR1/2 AGONIST DIPROVOCIM SYNERGIZES WITH CHECKPOINT-INHIBITING ANTIBODIES TO ELIMINATE DISEASE” (The Board of Regents of the University of Texas System, priority 2018, published 2021)
“Also recorded” adds a separate entry of the source.

Legend:
[1] = test system: human THP-1 cells; assay: TNF production by PMA-differentiated human THP-1 cells (ELISA); format: cell-based; conditions: 4 hours
Procedure: For murine BMDCs, bone morrow cells were cultured in Petri dishes in 10 ml DMEM cell culture medium containing 10 ng/ml of murine GM-CSF (R&D Systems). On day 3 of culture, this was replaced with fresh GM-CSF medium. Loosely adherent cells were transferred to a fresh Petri dish and cultured for an additional 4 d. Human PBMC were purchased from Stemcell Technologies. THP-1 (ATCC) cells were differentiated by treatment with 100 nM PMA (Sigma) in RPMI cell culture medium [RPMI containing 10% vol/vol FBS (Gemini Bio Products), 1% penicillin and streptomycin (Life Technologies)] for 24 hours. After that, cells were washed with PBS and cultured in fresh RPMI cell culture medium for 24 hours before use in studies.
Cells were seeded onto 96-well plates at 1×10^5 cells per well and stimulated with a Diprovocim (dissolved in DMSO, and final DMSO concentrations (0.2%) were kept constant in all experiments) for 4 h. Mouse TNF, IL-6, or IFN-β, or human TNF in the supernatants were measured by ELISA kits according to the manufacturer's instructions (eBioscience and PBL Assay Science). Pretreatment with 20 μg/ml anti-TLR1, anti-TLR2 or isotype control antibody (eBioscience) was for 1 hour. Unless otherwise indicated, mouse cells were from wild type C57BL/6J mice.

[2] = test system: OVA peptide-pulsed target cells; assay: In vivo CTL killing assay; design: species or system mouse; conditions: Tlr1−/− or Tlr2−/− mice
[3] = test system: B16-OVA melanoma; assay: Tumor-infiltrating leukocyte analysis in B16-OVA tumors (flow cytometry); format: in vivo, mouse
Procedure: A total of 2×10^5 B16-OVA cells in 100 μL PBS were injected s.c. into the flank of each mouse to establish tumors (n=6 mice per treatment). 10 mg/kg Diprovocim-1 or 2 mg/kg alum with OVA (100 μg) was injected i.m. into mice on day 3 after tumor inoculation. Mice received a booster shot seven days after the first immunization. On day 3, 6, 9, and 12 after tumor inoculation, mice were also injected i.p. with 200 μg anti-mPD-L1.
On day 14 after tumor inoculation, tumors were harvested, minced and filtered through a 40-μm strainer to obtain single-cell suspensions. Red blood cells were lysed with RBC lysis buffer (Sigma). After pelleting, cells were stained with a mixture of antibodies for 45 minutes, including anti-mouse CD45.2-PE or CD45.2-APC (BioLegend), anti-mouse CD3-FITC (BD Biosciences), anti-mouse CD4-BV786 (BD Biosciences), anti-mouse CD8-BV510 (BioLegend), anti-mouse CD44-PE-CF594 (BioLegend), APC-conjugated H-2Kb/OVA (SIINFEKL; SEQ ID NO: XX) tetramer (Baylor College of Medicine), anti-mouse F4/80-PE (Tonbo Bioscience), anti-mouse CD11b-BV605 (BioLegend), anti-CD11c-BV711 (BD Biosciences), anti-NK1.1-BV650 (BD Biosciences). Then, the cells were washed twice with PBS. Stained cells were analyzed with an LSRII instrument (BD Biosciences) and the flow cytometry data were analyzed using FlowJo software.

With `O=C(N[C@H]1C[C@@H]1c1ccccc1)[C@@H]1CN(C(=O)c2ccc(C(=O)N3C[C@@H](C(=O)N[C@H]4C[C@@H]4c4ccccc4)[C@H](C(=O)N[C@H]4C[C@@H]4c4ccccc4)C3)cc2)C[C@H]1C(=O)N[C@H]1C[C@@H]1c1ccccc1` [Diprovocim-1, (3S,3'S,4S,4'S)-1,1′-Terephthaloylbis(N^3,N^4-bis((1S,2R)-2-phenylcyclo-propyl)pyrrolidine-3,4-dicarboxamide)] the EC50 ([1]; Homo sapiens, THP-1 cells, read-out: EC50, dose-dependent TNF production) was 0.11 nM, the “activation of TNF production compared with Pam3CSK4” value ([1]; human THP-1 cells) was “more potent and efficacious; also recorded: more potent than Pam3CSK4” and the “adjuvant activity in CTL killing in TLR1- and/or TLR2-deficient mice” value [2] was “abrogated”. For the same compound, the “frequency of leukocytes (TILs) in tumors compared to vehicle+OVA” value ([3]; day 14, immunization day 3 and 10, plus anti-PD-L1) was “significantly increased”, the “frequency of NK cells in tumors” value ([3]; day 14, vs vehicle+OVA) was “increased” and the “frequency of OVA-specific CD8 T cells in tumors” value ([3]; day 14, vs vehicle+OVA) was “increased”. For the same compound, the “frequency of total and activated (CD44high) CD4 T cells in tumors” value ([3]; day 14, vs vehicle+OVA) was “increased” and the “frequency of total and activated (CD44high) CD8 T cells in tumors” value ([3]; day 14, vs vehicle+OVA) was “increased”.
